# Target: CDK2 (UniProt P24941)
# Experiment: Enzyme Assay
row,IC50 [nM],SMILES
1,2200,CN(C)C(=O)N1CCn2cc(C3=C(c4cnn5ccccc45)C(=O)NC3=O)c3cccc(c32)C1
2,13,CCC(=O)N1CCn2cc(C3=C(c4cncc5ccoc45)C(=O)NC3=O)c3cccc(c32)C1
3,3560,CC(C)C(=O)N1CCn2cc(C3=C(c4cnc5ccccn45)C(=O)NC3=O)c3cccc(c32)C1
4,> 20000,O=C1NC(=O)C(c2cnc3ccncn23)=C1c1cn2c3c(cccc13)CN(C(=O)N1CCOCC1)CC2
5,3030,O=C1NC(=O)C(c2cnn3ccccc23)=C1c1cn2c3c(cccc13)CN(C(=O)N1CCOCC1)CC2
6,60,CC(=O)N1CCn2cc(C3=C(c4cccc5c4OCO5)C(=O)NC3=O)c3cccc(c32)C1
7,434,O=C1NC(=O)C(c2cnc3cccnn23)=C1c1cn2c3c(cccc13)CN(C(=O)N1CCCCC1)CC2
8,7590,O=C1NC(=O)C(c2cnc3ccncn23)=C1c1cn2c3c(cccc13)CNCC2
9,10.2,O=C1NC(=O)C(c2cccc3ccoc23)=C1c1cn2c3c(cccc13)CNCC2
10,1630,CC(C)C(=O)N1CCn2cc(C3=C(c4cnn5ccccc45)C(=O)NC3=O)c3cccc(c32)C1
11,> 20000,O=C1NC(=O)C(c2cnc3ncccn23)=C1c1cn2c3c(cccc13)CN(C(=O)N1CCCCC1)CC2
12,> 20100,O=C1NC(=O)C(c2cnc3ncccn23)=C1c1cn2c3c(cccc13)CN(C(=O)N1CCOCC1)CC2
13,5580,O=C1NC(=O)C(c2cnc3cnccn23)=C1c1cn2c3c(cccc13)CNCC2
14,750,O=C1NC(=O)C(c2cnn3ccccc23)=C1c1cn2c3c(cccc13)CNCC2
15,445,CN(C)C(=O)N1CCn2cc(C3=C(c4cccc5c4OCO5)C(=O)NC3=O)c3cccc(c32)C1
16,205,O=C1NC(=O)C(c2cn3c4c(cccc24)CNCC3)=C1c1cccc2occc12
17,39.2,O=C1NC(=O)C(c2cncc3ccoc23)=C1c1cn2c3c(cccc13)CN(C(=O)N1CCOCC1)CC2
18,15.6,CN(C)C(=O)N1CCn2cc(C3=C(c4cncc5ccoc45)C(=O)NC3=O)c3cccc(c32)C1
19,5500,O=C1NC(=O)C(c2cnc3ccccn23)=C1c1cn2c3c(cccc13)CN(C(=O)C1CCOCC1)CC2

row,IC50 [nM],SMILES
1,297,O=C1NC(=O)C(c2cn3c4c(cccc24)CNCC3)=C1c1cccc2c1ccn2CCCO
2,> 20000,O=C1NC(=O)C(c2cnc3cnccn23)=C1c1cn2c3c(cccc13)CN(C(=O)N1CCCCC1)CC2
3,91,O=C1NC(=O)C(c2cn3c4c(cccc24)CNCC3)=C1c1cccc2c1OCO2
4,8760,O=C1NC(=O)C(c2cnc3ncccn23)=C1c1cn2c3c(cccc13)CNCC2
5,756,O=C1NC(=O)C(c2cnc3ccccn23)=C1c1cn2c3c(cccc13)CNCC2
6,629,CC(=O)N1CCn2cc(C3=C(c4cnc5ccccn45)C(=O)NC3=O)c3cccc(c32)C1
7,90,O=C1NC(=O)C(c2cccc3ccsc23)=C1c1cn2c3c(cccc13)CNCC2
8,1130,O=C1NC(=O)C(c2cn3c4c(cccc24)CNCC3)=C1c1ccc2c(c1)OCO2
9,> 20200,O=C1NC(=O)C(c2cnc3cnccn23)=C1c1cn2c3c(cccc13)CN(C(=O)N1CCOCC1)CC2
10,33,O=C1NC(=O)C(c2cn3c4c(cccc24)CNCC3)=C1c1cccc2c1OCC2
11,6.4,O=C1NC(=O)C(c2cncc3ccoc23)=C1c1cn2c3c(cccc13)CNCC2
12,76,CC(=O)N1CCn2cc(C3=C(c4cccc5ccsc45)C(=O)NC3=O)c3cccc(c32)C1
13,17.6,CC(=O)N1CCn2cc(C3=C(c4cccc5c4OCC5)C(=O)NC3=O)c3cccc(c32)C1
14,10.5,CC(=O)N1CCn2cc(C3=C(c4cccc5ccoc45)C(=O)NC3=O)c3cccc(c32)C1
15,35.7,O=C1NC(=O)C(c2cncc3ccoc23)=C1c1cn2c3c(cccc13)CN(C(=O)N1CCCCC1)CC2
16,67.2,O=C1NC(=O)C(c2cnc3cccnn23)=C1c1cn2c3c(cccc13)CNCC2
17,67.5,CN(C)C(=O)N1CCn2cc(C3=C(c4cccc5ccoc45)C(=O)NC3=O)c3cccc(c32)C1
18,8.1,CC(=O)N1CCn2cc(C3=C(c4cncc5ccoc45)C(=O)NC3=O)c3cccc(c32)C1
19,363,Cn1ccc2c(C3=C(c4cn5c6c(cccc46)CNCC5)C(=O)NC3=O)cccc21
